# Source: ChEMBL document CHEMBL4616624, “STAT3 inhibitory activity of naphthoquinones isolated from Tabebuia avellanedae” (Bioorg Med Chem, 2020)
# Activity calls are given as the source filed them. No cut-off for these calls is given here.
# Experiments:
# [1] = test system: A549; experiment: Cytotoxicity against human A549 cells assessed as reduction in cell proliferation measured after 72 hrs by WST8 assay; type: functional, cell-based; conditions: A549, 72 h
# [2] = test system: MDA-MB-231; experiment: Inhibition of JAK/STAT signaling in human MDA-MB-231 cells assessed as decrease in STAT3 phosphorylation by measuring phosphorylated intensity level at 2 uM incubated for 2 hrs by Western blot analysis (reference value: 100%); type: cell-based; set-up: scale not given: the % may be the effect or the level left
# [3] = test system: MDA-MB-231; experiment: Cytotoxicity against human MDA-MB-231 cells assessed as reduction in cell proliferation measured after 72 hrs by WST8 assay; type: functional, cell-based; conditions: MDA-MB-231, 72 h
# [4] = test system: MDA-MB-231; experiment: Inhibition of JAK/STAT signaling in human MDA-MB-231 cells assessed as decrease in STAT3 phosphorylation by measuring phosphorylated intensity level at 0.5 uM incubated for 2 hrs by Western blot analysis (reference value: 100%); type: cell-based; set-up: scale not given: the % may be the effect or the level left
# [5] = target: T1, Tyrosine-protein kinase JAK3 (Homo sapiens) (UniProt P52333); experiment: Inhibition of human recombinant N-terminal His-tagged JAK3 (795 to 1124 residue) expressed in baculovirus infected Sf21 insect cells up to 100 uM using Srctide as substrate by mobility shift assay
# T1 sequence (whole entry): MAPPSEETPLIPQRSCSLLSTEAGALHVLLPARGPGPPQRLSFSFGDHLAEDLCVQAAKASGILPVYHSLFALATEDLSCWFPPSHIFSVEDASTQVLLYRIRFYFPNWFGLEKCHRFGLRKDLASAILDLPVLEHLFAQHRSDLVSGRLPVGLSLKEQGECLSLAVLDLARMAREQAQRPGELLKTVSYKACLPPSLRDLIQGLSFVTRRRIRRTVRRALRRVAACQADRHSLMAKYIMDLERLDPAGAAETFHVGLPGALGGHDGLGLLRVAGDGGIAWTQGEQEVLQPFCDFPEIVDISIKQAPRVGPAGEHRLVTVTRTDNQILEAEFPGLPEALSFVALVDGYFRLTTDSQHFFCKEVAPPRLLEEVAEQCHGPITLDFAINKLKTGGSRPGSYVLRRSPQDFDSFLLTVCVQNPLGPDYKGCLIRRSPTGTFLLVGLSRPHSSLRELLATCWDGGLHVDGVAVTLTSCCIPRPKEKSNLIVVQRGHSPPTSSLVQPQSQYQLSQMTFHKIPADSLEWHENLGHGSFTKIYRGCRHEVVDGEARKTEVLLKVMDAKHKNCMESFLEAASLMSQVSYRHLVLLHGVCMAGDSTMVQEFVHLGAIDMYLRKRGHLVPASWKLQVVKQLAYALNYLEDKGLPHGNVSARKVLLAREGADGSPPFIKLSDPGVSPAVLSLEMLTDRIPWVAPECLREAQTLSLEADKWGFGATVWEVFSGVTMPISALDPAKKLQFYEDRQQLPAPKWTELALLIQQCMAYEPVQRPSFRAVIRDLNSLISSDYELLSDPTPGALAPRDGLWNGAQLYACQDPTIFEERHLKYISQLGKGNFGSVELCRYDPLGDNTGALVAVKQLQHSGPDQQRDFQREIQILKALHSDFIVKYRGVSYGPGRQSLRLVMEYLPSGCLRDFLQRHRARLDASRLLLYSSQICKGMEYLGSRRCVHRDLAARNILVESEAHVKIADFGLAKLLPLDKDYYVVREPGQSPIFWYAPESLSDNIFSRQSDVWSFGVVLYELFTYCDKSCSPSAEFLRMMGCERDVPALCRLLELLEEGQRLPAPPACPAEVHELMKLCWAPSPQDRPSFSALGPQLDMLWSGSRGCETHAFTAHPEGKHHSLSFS
# [6] = target: Tyrosine-protein kinase JAK2 (Homo sapiens) (UniProt O60674); experiment: Inhibition of human recombinant N-terminal His-tagged JAK2 (826 to 1132 residue) expressed in baculovirus expression system at 100 uM using Srctide as substrate by mobility shift assay relative to control
# [7] = test system: MDA-MB-231; experiment: Inhibition of JAK/STAT signaling in human MDA-MB-231 cells assessed as decrease in STAT3 phosphorylation by measuring phosphorylated intensity level at 4 uM incubated for 2 hrs by Western blot analysis (reference value: 100%); type: cell-based; set-up: scale not given: the % may be the effect or the level left
# [8] = test system: MDA-MB-231; experiment: Inhibition of JAK/STAT signaling in human MDA-MB-231 cells assessed as decrease in STAT3 phosphorylation incubated for 2 hrs by Western blot analysis; type: cell-based
# [9] = target: Tyrosine-protein kinase JAK1 (Homo sapiens) (UniProt P23458); experiment: Inhibition of human recombinant N-terminal GST-tagged JAK1 (850 to 1154 residue) expressed in baculovirus expression system at 100 uM using JAK1 peptide as substrate by mobility shift assay relative to control
# [10] = test system: MDA-MB-231; experiment: Inhibition of JAK/STAT signaling in human MDA-MB-231 cells assessed as decrease in STAT3 phosphorylation by measuring phosphorylated intensity level at 1 uM incubated for 2 hrs by Western blot analysis (reference value: 100%); type: cell-based; set-up: scale not given: the % may be the effect or the level left
# [11] = test system: MCF7; experiment: Effect on total STAT3 level in IL-6 induced human MCF7 cells at 0.5 to 4 uM preincubated for 1 hr followed by IL-6 stimulation and measured after 1 hr by Western blot analysis; type: ADME, cell-based; conditions: mcf7, 1 h
# [12] = test system: MCF7; experiment: Cytotoxicity against human MCF7 cells assessed as reduction in cell proliferation measured after 72 hrs by WST8 assay; type: functional, cell-based; conditions: MCF7, 72 h
# [13] = target: T2, Signal transducer and activator of transcription 3 (Homo sapiens, UniProt P40763); experiment: Inhibition of IL-6 induced STAT3 phosphorylation at Tyr705 residue in human MCF7 cells assessed as phosphorylation intensity level at 0.5 uM preincubated for 1 hr followed by IL-6 stimulation and measured after 1 hr by Western blot analysis; type: cell-based; set-up: scale not given: the % may be the effect or the level left
# [14] = target: T3, Signal transducer and activator of transcription 1-alpha/beta (Homo sapiens) (UniProt P42224); experiment: Inhibition of FAM-G(py)DKPHVL-NH2 binding to GST-tagged STAT1-SH2 domain (unknown origin) preincubated for 15 mins followed by FAM-G(py)DKPHVL-NH2 addition and measured after 30 mins by TR-FRET assay
# T3 sequence (whole entry): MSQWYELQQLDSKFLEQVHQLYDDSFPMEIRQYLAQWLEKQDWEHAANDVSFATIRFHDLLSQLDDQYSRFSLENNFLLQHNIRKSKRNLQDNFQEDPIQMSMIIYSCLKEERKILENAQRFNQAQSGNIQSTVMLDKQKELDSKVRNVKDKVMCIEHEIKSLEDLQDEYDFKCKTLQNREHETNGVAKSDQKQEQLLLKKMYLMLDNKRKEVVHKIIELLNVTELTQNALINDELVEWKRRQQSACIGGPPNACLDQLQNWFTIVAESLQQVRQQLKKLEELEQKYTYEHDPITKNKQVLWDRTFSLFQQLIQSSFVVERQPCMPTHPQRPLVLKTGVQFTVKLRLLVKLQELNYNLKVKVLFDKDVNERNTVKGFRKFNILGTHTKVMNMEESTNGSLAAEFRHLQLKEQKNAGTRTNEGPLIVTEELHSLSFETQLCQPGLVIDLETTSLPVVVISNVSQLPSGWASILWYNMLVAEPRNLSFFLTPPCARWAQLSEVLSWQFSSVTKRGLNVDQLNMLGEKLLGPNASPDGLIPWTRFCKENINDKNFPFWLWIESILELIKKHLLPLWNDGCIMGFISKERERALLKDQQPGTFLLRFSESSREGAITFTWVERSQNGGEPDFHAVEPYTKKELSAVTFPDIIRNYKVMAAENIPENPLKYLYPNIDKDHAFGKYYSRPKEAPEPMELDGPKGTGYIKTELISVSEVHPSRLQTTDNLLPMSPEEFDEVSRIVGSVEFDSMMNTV
# [15] = target: T2, Signal transducer and activator of transcription 3; experiment: Inhibition of FAM-G(py)LPQTV-NH2 binding to GST-tagged STAT3-SH2 domain (unknown origin) preincubated for 15 mins followed by FAM-G(py)LPQTV-NH2 addition and measured after 30 mins by TR-FRET assay
# [16] = target: T2, Signal transducer and activator of transcription 3; experiment: Inhibition of IL-6 induced STAT3 phosphorylation at Tyr705 residue in human MCF7 cells preincubated for 1 hr followed by IL-6 stimulation and measured after 1 hr by Western blot analysis; type: cell-based
# [17] = target: T2, Signal transducer and activator of transcription 3; experiment: Inhibition of IL-6 induced STAT3 phosphorylation at Tyr705 residue in human MCF7 cells at 10 uM preincubated for 1 hr followed by IL-6 stimulation and measured after 1 hr by Western blot analysis relative to control; type: cell-based
# [18] = target: T2, Signal transducer and activator of transcription 3; experiment: Inhibition of IL-6 induced STAT3 phosphorylation at Tyr705 residue in human MCF7 cells assessed as phosphorylation intensity level at 1 uM preincubated for 1 hr followed by IL-6 stimulation and measured after 1 hr by Western blot analysis; type: cell-based; set-up: scale not given: the % may be the effect or the level left
# [19] = target: T2, Signal transducer and activator of transcription 3; experiment: Inhibition of IL-6 induced STAT3 phosphorylation at Tyr705 residue in human MCF7 cells assessed as phosphorylation intensity level at 2 uM preincubated for 1 hr followed by IL-6 stimulation and measured after 1 hr by Western blot analysis; type: cell-based; set-up: scale not given: the % may be the effect or the level left
# [20] = target: T2, Signal transducer and activator of transcription 3; experiment: Inhibition of IL-6 induced STAT3 phosphorylation at Tyr705 residue in human MCF7 cells assessed as phosphorylation intensity level at 4 uM preincubated for 1 hr followed by IL-6 stimulation and measured after 1 hr by Western blot analysis; type: cell-based; set-up: scale not given: the % may be the effect or the level left
# [21] = target: T2, Signal transducer and activator of transcription 3; experiment: Inhibition of IL-6 induced STAT3 phosphorylation at Tyr705 residue in human MCF7 cells at 1 uM preincubated for 1 hr followed by IL-6 stimulation and measured after 1 hr by Western blot analysis relative to control; type: cell-based
# [22] = target: Tyrosine-protein kinase JAK2 (Homo sapiens) (UniProt O60674); experiment: Inhibition of IL-6 induced JAK2 phosphorylation at Tyr1007/1008 residue in human MCF7 cells preincubated for 1 hr followed by IL-6 stimulation and measured after 1 hr by Western blot analysis; type: cell-based
# T2 sequence (P40763 whole entry, the tested form may be a part): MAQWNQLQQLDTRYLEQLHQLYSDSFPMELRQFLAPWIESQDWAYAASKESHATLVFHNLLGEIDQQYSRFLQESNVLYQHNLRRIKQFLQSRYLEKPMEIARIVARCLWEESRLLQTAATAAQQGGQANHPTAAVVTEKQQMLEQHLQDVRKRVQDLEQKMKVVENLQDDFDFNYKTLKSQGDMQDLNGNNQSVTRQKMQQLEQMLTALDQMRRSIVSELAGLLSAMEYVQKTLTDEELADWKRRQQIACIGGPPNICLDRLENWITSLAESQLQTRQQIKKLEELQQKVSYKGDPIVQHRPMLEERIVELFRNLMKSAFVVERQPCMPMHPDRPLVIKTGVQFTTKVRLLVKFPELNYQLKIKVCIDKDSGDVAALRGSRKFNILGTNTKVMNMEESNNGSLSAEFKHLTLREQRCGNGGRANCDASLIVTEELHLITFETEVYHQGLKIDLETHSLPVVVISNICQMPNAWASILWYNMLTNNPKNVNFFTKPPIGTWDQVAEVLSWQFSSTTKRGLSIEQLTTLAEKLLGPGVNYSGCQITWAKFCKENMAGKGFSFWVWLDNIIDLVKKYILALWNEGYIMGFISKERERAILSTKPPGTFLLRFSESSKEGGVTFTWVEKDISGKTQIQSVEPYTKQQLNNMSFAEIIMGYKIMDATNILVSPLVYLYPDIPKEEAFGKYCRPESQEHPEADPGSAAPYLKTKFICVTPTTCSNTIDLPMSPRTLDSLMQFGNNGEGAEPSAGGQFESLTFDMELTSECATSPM
# Tyrosine-protein kinase JAK2 (Homo sapiens), sequence (O60674 whole entry): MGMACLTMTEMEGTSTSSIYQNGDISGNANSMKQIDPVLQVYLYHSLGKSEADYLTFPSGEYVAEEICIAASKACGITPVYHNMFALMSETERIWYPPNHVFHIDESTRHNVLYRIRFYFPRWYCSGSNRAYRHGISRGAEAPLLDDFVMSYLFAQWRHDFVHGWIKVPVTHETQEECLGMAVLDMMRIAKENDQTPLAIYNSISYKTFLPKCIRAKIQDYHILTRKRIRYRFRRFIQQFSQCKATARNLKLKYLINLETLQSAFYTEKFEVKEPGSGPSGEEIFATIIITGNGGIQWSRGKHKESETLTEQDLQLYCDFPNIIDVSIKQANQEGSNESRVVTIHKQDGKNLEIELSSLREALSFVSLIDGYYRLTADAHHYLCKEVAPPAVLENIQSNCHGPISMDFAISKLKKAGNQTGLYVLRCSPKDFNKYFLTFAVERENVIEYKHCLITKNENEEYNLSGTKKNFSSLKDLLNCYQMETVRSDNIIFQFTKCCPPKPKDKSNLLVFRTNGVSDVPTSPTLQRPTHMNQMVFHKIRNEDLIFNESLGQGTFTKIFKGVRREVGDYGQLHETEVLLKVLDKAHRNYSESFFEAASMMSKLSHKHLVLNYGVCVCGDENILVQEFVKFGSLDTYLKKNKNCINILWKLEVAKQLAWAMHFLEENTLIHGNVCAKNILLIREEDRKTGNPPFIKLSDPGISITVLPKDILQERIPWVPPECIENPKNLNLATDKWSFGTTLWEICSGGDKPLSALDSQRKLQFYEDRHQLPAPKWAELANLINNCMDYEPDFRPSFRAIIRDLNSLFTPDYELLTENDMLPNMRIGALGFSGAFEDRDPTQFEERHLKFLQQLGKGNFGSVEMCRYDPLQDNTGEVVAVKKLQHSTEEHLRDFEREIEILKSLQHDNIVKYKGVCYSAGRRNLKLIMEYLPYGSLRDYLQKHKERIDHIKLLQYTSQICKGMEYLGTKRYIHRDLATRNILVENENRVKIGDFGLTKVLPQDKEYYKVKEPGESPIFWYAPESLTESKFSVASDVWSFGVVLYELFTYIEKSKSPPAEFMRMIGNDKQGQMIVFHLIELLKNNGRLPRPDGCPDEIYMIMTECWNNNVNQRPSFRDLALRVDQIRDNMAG
# Tyrosine-protein kinase JAK1 (Homo sapiens), sequence (P23458 whole entry): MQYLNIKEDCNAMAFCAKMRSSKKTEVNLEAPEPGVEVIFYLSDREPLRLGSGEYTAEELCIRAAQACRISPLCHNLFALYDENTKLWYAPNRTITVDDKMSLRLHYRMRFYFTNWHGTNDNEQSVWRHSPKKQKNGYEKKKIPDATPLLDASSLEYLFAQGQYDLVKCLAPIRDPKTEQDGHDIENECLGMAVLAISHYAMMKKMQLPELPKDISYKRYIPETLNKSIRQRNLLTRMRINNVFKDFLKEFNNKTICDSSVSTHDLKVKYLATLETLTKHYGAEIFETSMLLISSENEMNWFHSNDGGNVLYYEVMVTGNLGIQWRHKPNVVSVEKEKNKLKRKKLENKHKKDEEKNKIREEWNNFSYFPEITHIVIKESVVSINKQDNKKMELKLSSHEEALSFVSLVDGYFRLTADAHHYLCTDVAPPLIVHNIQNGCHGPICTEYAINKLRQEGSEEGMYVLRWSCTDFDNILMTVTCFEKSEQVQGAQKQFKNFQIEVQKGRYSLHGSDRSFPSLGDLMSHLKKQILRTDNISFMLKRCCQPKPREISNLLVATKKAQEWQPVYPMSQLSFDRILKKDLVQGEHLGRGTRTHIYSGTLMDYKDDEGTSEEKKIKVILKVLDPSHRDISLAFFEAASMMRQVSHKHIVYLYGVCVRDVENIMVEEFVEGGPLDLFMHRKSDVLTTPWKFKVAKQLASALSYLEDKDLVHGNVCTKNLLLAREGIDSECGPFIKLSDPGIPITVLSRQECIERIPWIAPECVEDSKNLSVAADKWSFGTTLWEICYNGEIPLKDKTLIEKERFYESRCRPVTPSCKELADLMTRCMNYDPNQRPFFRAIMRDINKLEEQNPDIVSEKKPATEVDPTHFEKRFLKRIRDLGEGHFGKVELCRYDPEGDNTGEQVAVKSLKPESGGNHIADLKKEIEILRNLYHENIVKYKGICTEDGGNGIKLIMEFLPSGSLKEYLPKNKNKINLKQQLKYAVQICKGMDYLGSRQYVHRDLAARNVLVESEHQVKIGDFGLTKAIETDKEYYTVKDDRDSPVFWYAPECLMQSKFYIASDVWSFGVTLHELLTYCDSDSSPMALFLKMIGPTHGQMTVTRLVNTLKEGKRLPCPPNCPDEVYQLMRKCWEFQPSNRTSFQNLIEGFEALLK
Compound,IC50 [1] [nM],IC50 [3] [nM],Activity [11],IC50 [12] [nM],Activity [13] [%],inhibition [17],Activity [18] [%],Activity [19] [%],Activity [20] [%],inhibition [21],other results
CC(=O)c1cc2c(o1)C(=O)c1ccccc1C2=O [NAPABUCASIN],120,250,Non-Toxic,240,,,,,,,Activity [2]: 48%; Activity [4]: 111%; inhibition [5]: inactive; inhibition [6]: 84.7%; Activity [7]: 28%; inhibition [8]: Dose-dependent effect; inhibition [9]: 95.5%; Activity [10]: 107%
C[C@H](O)c1cc2c(o1)C(=O)c1cccc(O)c1C2=O,130,410,Non-Toxic,500,76,100%,75,43,3,Active,Activity [2]: 21%; Activity [4]: 68%; inhibition [14]: inactive; inhibition [15]: inactive; inhibition [5]: inactive; inhibition [6]: 80.6%; IC50 [16]: 2000 nM; Activity [7]: 35%; inhibition [8]: Dose-dependent effect; inhibition [9]: 94.8%; Activity [10]: 78%; inhibition [22]: Dose-dependent effect
C[C@H](O)c1cc2c(o1)C(=O)c1ccccc1C2=O,720,1590,Non-Toxic,280,36,,23,20,35,,
CC(C)=CCC1=C(O)C(=O)c2ccccc2C1=O [LAPACHOL],> 30000,> 30000,,> 30000,,inactive,,,,inactive,
CC1(C)CCC2=C(O1)C(=O)c1ccccc1C2=O [ALPHA-LAPACHONE],> 30000,> 30000,,> 30000,,inactive,,,,inactive,
C[C@H](O)c1cc2c(o1)C(=O)c1c(O)cccc1C2=O,280,330,,1110,,100%,,,,Active,
CC(=O)c1cc2c(o1)C(=O)c1cccc(O)c1C2=O,44,170,Non-Toxic,51,107,,84,38,23,,IC50 [16]: 2000 nM
CC1(C)CCC2=C(O1)c1ccccc1C(=O)C2=O [LAPACHONE],1960,1390,,710,,inactive,,,,inactive,
